How the values were obtained:
[1] = tested on: AD constricted rabbit aorta; test: Relaxing effects on vascular smooth muscle constricted by adrenaline hydrochloride (AD) in vitro; settings: relaxation of rabbit aorta constricted by adrenaline (10^−5 mol/L), mean±SEM, n=5; for EC50: Oryctolagus cuniculus
Protocol: (§1) Adrenaline hydrochloride (AD) (10^−5 mol/L) was added into a bath tube to induce constriction, when maximal constriction was achieved, the sample was completely flushed, K-H solution was changed for every 20 min. Contents in the tube was balanced for 60 min, when baseline recovered to be stable, the convulsant was added at the same concentration to induce constriction. When the later maximal constriction response was basically consistent with the former one, the prepared compound solutions were subsequently added, including compound II-1 to II-60 solutions (1×10^−8-1×10^−3 mol/L), compound II-84 to II-123 solutions (1×10^−10-1×10^−2 mol/L) and compound II-124 to II-157 solutions (1×10^−10˜1×10^−3 mol/L), to record the waveforms. Relaxing percentage of the compound was used as Y axis, maximal relaxation response was 100%, negative logarithm of different concentration was used as X axis, to draw dose effect curve (expressed in mean±SEM ( ? ), n=5). Compounds II-2 and II-3 had the most obvious relaxing effects (FIG. 1 and FIG. 8).

[2] = tested on: NA constricted rabbit aorta; test: Relaxing effects on vascular smooth muscle constricted by noradrenaline (NA) in vitro; settings: relaxation of rabbit aorta constricted by noradrenaline (10^−5 mol/L), mean±SEM, n=5; for EC50: Oryctolagus cuniculus
Protocol: as §1, with “noradrenaline bitartrate (NA) (10^−5 mol/L)” for “the convulsant”, “added” for “added at the same concentration”, “compound” for “compound II-1 to II-60 solutions (1×10^−8-1×10^−3 mol/L), compound”, “mol/L),” for “mol/L) and”, “(1×10^−10-1×10^−3” for “(1×10^−10˜1×10^−3”, “n=5).” for “n=5). Compounds II-2 and II-3 had the most obvious relaxing effects (FIG. 1 and FIG. 8).”

[3] = tested on: high kalium concentration constricted rabbit aorta; test: Relaxing effects on vascular smooth muscle constricted by high kalium concentration in vitro; settings: relaxation of rabbit aorta constricted by high kalium solution (K+ 60 mmol/L), mean±SEM, n=5; for EC50: Oryctolagus cuniculus
Protocol: Adrenaline hydrochloride (AD) (10^−5 mol/L) was added into a bath tube to induce constriction, when maximal constriction was achieved, the sample was completely flushed, K-H solution was changed for every 20 min. Contents in the tube was balanced for 60 min, when baseline recovered to be stable, K-H solution in the bath tube was replaced with high kalium concentration solution to induce constriction. When the later maximal constriction response was basically consistent with the former one, the prepared compound solutions were subsequently added, including compound II-1 to II-60 solutions (1×10^−8-1×10^−3 mol/L), compound II-84 to II-123 solutions (1×10^−10-1×10^−2 mol/L) and compound II-124 to II-157 solutions (1×10^−10-1×10^−3 mol/L), to record the waveforms. Relaxing percentage of the compound was used as Y axis, maximal relaxation response was 100%, negative logarithm of different concentration was used as X axis, to draw dose effect curve (expressed in mean±SEM ( ? ), n=5). Compounds II-2 and II-3 had the most obvious relaxing effects (FIG. 2 and FIG. 9).

Structure (SMILES) | EC50 [1] | EC50 [2] | EC50 [3] | −logEC50 [1] | −logEC50 [2] | −logEC50 [3]
c1ccc2c(c1)nnn2CCCN1CCC(c2noc3ccccc23)CC1 [II-84, N-(3-(1H-benzotriazole-1-yl)propyl)-4-(3-benzisoxazolyl)piperidine] | 0.589 µM | 0.676 µM | 53.7 µM |  |  | 
Cc1ccc2c(C3CCN(CCCn4nnc5ccccc54)CC3)noc2c1 [II-86, N-(3-(1H-benzotriazole-1-yl)propyl)-4-(3-(6-methylbenzisoxazolyl))piperidine] |  |  |  | 5.45 ± 0.04 | 5.26 ± 0.04 | 4.09 ± 0.04
COc1ccc2c(C3CCN(CCCn4nnc5ccccc54)CC3)noc2c1 [II-87, N-(3-(1H-benzotriazole-1-yl)propyl)-4-(3-(6-methoxylbenzisoxazolyl))piperidine] |  |  |  | 5.34 ± 0.03 | 5.04 ± 0.03 | 4.12 ± 0.03
Fc1ccc2c(C3CCN(CCCn4nnc5ccc(F)cc54)CC3)noc2c1 [II-88, N-(3-(6-fluoro-1H-benzotriazole-1-yl)propyl)-4-(3-(6-fluorobenzisoxazolyl))piperidine] |  |  |  | 5.61 ± 0.05 | 5.73 ± 0.05 | 4.72 ± 0.05
Fc1ccc2c(C3CCN(CCCn4nnc5ccc(Cl)cc54)CC3)noc2c1 [II-89, N-(3-(6-chloro-1H-benzotriazole-1-yl)propyl)-4-(3-(6-fluorobenzisoxazolyl))piperidine] |  |  |  | 5.42 ± 0.04 | 5.22 ± 0.04 | 4.12 ± 0.04
Cc1ccc2nnn(CCCN3CCC(c4noc5cc(F)ccc45)CC3)c2c1 [II-90, N-(3-(6-methyl-1H-benzotriazole-1-yl)propyl)-4-(3-(6-fluorobenzisoxazolyl))piperidine] |  | 4.47 µM |  | 5.38 ± 0.03 |  | 4.28 ± 0.03
COc1ccc2nnn(CCCN3CCC(c4noc5cc(F)ccc45)CC3)c2c1 [II-91, N-(3-(6-methoxyl-1H-benzotriazole-1-yl)propyl)-4-(3-(6-fluorobenzisoxazolyl))piperidine] |  | 4.9 µM |  | 5.23 ± 0.05 |  | 4.02 ± 0.05
O=Cc1ccc2nnn(CCCN3CCC(c4noc5cc(F)ccc45)CC3)c2c1 [II-92, N-(3-(6-formoxyl-1H-benzotriazole-1-yl)propyl)-4-(3-(6-fluorobenzisoxazolyl))piperidine] |  | 1.86 µM |  | 5.56 ± 0.04 |  | 4.32 ± 0.04
COc1ccc2nnn(CCCN3CCC(c4noc5ccccc45)CC3)c2c1 [II-93, N-(3-(6-methoxylbenzotriazolyl)propyl)-4-(3-benzisoxazolyl)piperidine] |  | 0.851 µM |  | 6.11 ± 0.07 |  | 4.11 ± 0.03
COc1ccc2c(C3CCN(CCCCn4nnc5ccc(C#N)cc54)CC3)noc2c1 [II-97, N-(4-(6-cyanobenzotriazolyl)butyl)-4-(3-(6-methoxylbenzisoxazolyl))piperidine] |  | 8.13 µM |  | 5.23 ± 0.06 |  | 3.23 ± 0.04
COc1ccc2nnn(OCCN3CCC(c4noc5cc(F)ccc45)CC3)c2c1 [II-98, N-(2-(6-methoxylbenzotriazolyl)ethoxyl)-4-(3-(6-fluorobenzisoxazolyl))piperidine] | 93.3 µM | 49 µM | 295 µM |  |  | 
Fc1ccc2c(C3CCN(CCOn4nnc5ccccc54)CC3)noc2c1 [II-99, N-(2-(1-benzotriazolyl)ethoxyl)-4-(3-(6-fluorobenzisoxazolyl))piperidine] | 55 µM | 91.2 µM | 550 µM |  |  | 
Fc1ccc2c(C3CCN(CCCn4ncc5ccccc54)CC3)noc2c1 [II-103, N-(3-(1-benzopyrazol)propyl)-4-(3-(6-fluorobenzisoxazolyl))piperidine] | 6.17 µM | 7.76 µM | 617 µM |  |  | 
FC(F)(F)c1cccc(C2CCN(CCCOn3nnc4ccccc43)CC2)c1 [II-133, N-(4-(1H-benzotriazole-1-yl)propoxyl)-4-(3-trifluoromethylphenyl)piperidine] | 2.75 µM |  |  |  | 5.36 ± 0.05 | 
FC(F)(F)c1cccc(C2CCN(CCCOn3cnc4ccccc43)CC2)c1 [II-134, N-(4-(1H-benzimidazole-1-yl)propoxyl)-4-(3-trifluoromethylphenyl)piperidine] | 4.9 µM |  |  |  | 5.15 ± 0.06 | 
Cc1ccc2c(C3CCN(CCCn4nnc5ccccc54)CC3)noc2c1 [II-135, N-(3-(1H-benzotriazole-1-yl)propyl)-4-(3-(6-methylbenzisoxazolyl))piperidine] | 3.55 µM | 5.5 µM |  |  |  | 
COc1ccc2c(C3CCN(CCCn4nnc5ccccc54)CC3)noc2c1 [II-136, N-(3-(1H-benzotriazole-1-yl)propyl)-4-(3-(6-methoxylbenzisoxazolyl))piperidine] | 4.57 µM | 9.12 µM |  |  |  | 
Fc1ccc2c(C3CCN(CCCn4nnc5ccc(F)cc54)CC3)noc2c1 [II-137, N-(3-(6-fluoro-1H-benzotriazole-1-yl)propyl)-4-(3-(6-fluorobenzisoxazolyl))piperidine] | 2.45 µM | 1.86 µM |  |  |  | 
Fc1ccc2c(C3CCN(CCCn4nnc5ccc(Cl)cc54)CC3)noc2c1 [II-138, N-(3-(6-chloro-1H-benzotriazole-1-yl)propyl)-4-(3-(6-fluorobenzisoxazolyl))piperidine] | 3.8 µM | 6.03 µM |  |  |  | 
Cc1ccc2nnn(CCCN3CCC(c4noc5cc(F)ccc45)CC3)c2c1 [II-139, N-(3-(6-methyl-1H-benzotriazole-1-yl)propyl)-4-(3-(6-fluorobenzisoxazolyl))piperidine] | 4.17 µM |  |  |  | 5.35 ± 0.03 | 
O=Cc1ccc2nnn(CCCN3CCC(c4noc5cc(F)ccc45)CC3)c2c1 [II-141, N-(3-(6-formoxyl-1H-benzotriazole-1-yl)propyl)-4-(3-(6-fluorobenzisoxazolyl))piperidine] | 2.75 µM |  |  |  | 5.73 ± 0.04 | 
COc1ccc2nnn(CCCN3CCC(c4noc5ccccc45)CC3)c2c1 [II-142, N-(3-(6-methoxylbenzotriazolyl)propyl)-4-(3-benzisoxazolyl)piperidine] | 0.776 µM |  |  |  | 6.07 ± 0.04 | 
COc1ccc2c(C3CCN(CCCCn4nnc5ccc(C#N)cc54)CC3)noc2c1 [II-146, N-(4-(6-cyanobenzotriazolyl)butyl)-4-(3-(6-methoxylbenzisoxazolyl))piperidine] | 5.89 µM |  |  |  | 5.09 ± 0.04 | 
c1coc(C2CCN(CCCCn3cnc4ccccc43)CC2)c1 [II-152, N-(4-(1H-benzimidazoyl-1-yl)butyl)-4-(2-furyl)piperidine] | 37.2 µM |  |  |  | 4.23 ± 0.03 | 
c1ccc2c(c1)ncn2CCCCN1CCC(c2ccncc2)CC1 [II-153, N-(4-(1H-benzimidazoyl-1-yl)butyl)-4-(4-pyridyl)piperidine] | 13.8 µM |  |  |  | 4.66 ± 0.02 | 
c1cnc(C2CCN(CCCCn3cnc4ccccc43)CC2)nc1 [II-154, N-(4-(1H-benzimidazoyl-1-yl)butyl)-4-(2-pyrimidinyl)piperidine] |  |  |  | 4.72 ± 0.03 | 4.52 ± 0.04 | 
c1ccc2c(c1)nnn2CCCCN1CCC(C2CCCCC2)CC1 [II-155, N-(4-(1H-benzotriazole-1-yl)butyl)-4-cyclohexyl piperidine] |  |  |  | 4.39 ± 0.05 | 4.44 ± 0.05 | 
c1ccc2c(C3CCN(CCCCn4nnc5ccccc54)CC3)cccc2c1 [II-156, N-(4-(1H-benzotriazole-1-yl)butyl)-4-(1-naphthyl)piperidine] |  |  |  | 4.22 ± 0.06 | 4.34 ± 0.04 | 
c1ccc2nc(C3CCN(CCCCn4nnc5ccccc54)CC3)cnc2c1 [II-157, N-(4-(1H-benzotriazole-1-yl)butyl)-4-(2-quinoxalinyl)piperidine] |  |  |  | 4.83 ± 0.05 | 4.53 ± 0.05 | 

Reference: patent publication US9415047B2, “Use of benzo five-membered nitrogen heterocyclic piperazine or piperidine derivatives” (Liaoning Emmy Biological Pharmaceutical Co., Ltd., priority 2012, dated 2016)
